Earlier results as cited in patent US6683065B1, “Method of treating body insect infestation” (Host Pharmaceuticals LLC, priority 1999, dated 2004).

Settings: at 20° C.

n-alkanes
Surface Tension: 37.8^1 dynes/cm

n-fluoroalkanes
Surface Tension: 25.9^1 dynes/cm
